Assay results reported in PubChem BioAssay AID1963832 (Molecular Pharmacology Branch, DTP, NCI, 2024).

Test system: 885724-159-R-J1-PDC complex spheroid viability
Assay: Anticancer human tumor 885724-159-R-J1-PDC patient-derived pancreatic adenocarcinoma cell line growth inhibition [POLQ]
Settings: for IC50: curve of first compound; for viability, T/C: stronger effect = lower value; active = viability on the fitted dose curve at most 10% of control; inactive = the rest
Protocol: Multicellular complex tumor spheroid response to Polymerase (POL) inhibitors (novobiocin, ART-558, RP6685) in combination with a variety of drugs and investigational agents in selected tumor cell lines
The POL inhibitors (novobiocin, ART-558, and RP6685) were evaluated both individually and in combination with standard of care and investigational anticancer small molecules within a complex spheroid model of solid tumors. . Complex spheroids include a stromal component modeled by human endothelial cells (HUVEC) and fibroblasts modeled by human mesenchymal stem cells (MSCs). The concentration ranges selected for each drug and investigational agent were based upon clinically achievable concentrations if the clinical Cmax of the agent was known.
Compounds. The drugs and investigational agents: novobiocin (NSC847541), ART-558 (NSC835418), RP-6685 (NSC848927), peposertib (NSC802822), ceralasertib (NSC780249), elimusertib (NSC800525), camonsertib (NSC841442), AZD-1390 (NSC803789), olaparib (NSC753686), talazoparib (NSC767125), rucaparib (NSC756644), sotorasib (NSC818433), MRTX-1133 (NSC836407), SN-38 (NSC673596), topotecan (NSC609699), epotoside (NSC141540), doxorubicin (NSC123127), gemcitabine (NSC613327), 5-fluorouracil (NSC19893), paclitaxel (NSC125973), vemurafenib (NSC761431), MSA-2 (NSC828583), SN-011 (NSC837082), adavosertib (NSC754352), prexasertib (NSC758257), carboplatin (NSC241240) and oxaliplatin (NSC266046), were obtained from the National Cancer Institute (NCI) Developmental Therapeutics Program Chemical Repository (21). The FDA-approved anticancer drug set is available from the Developmental Therapeutics Program at https://dtp.cancer.gov/organization/dscb/obtaining/. […] The stock solutions were prepared in dimethyl sulfoxide (DMSO, Sigma-Aldrich, St. Louis, MO, cat. D2650), except for the platinum compounds which were prepared in saline (Quality Biological, Gaithersburg, MD, cat. 114-055-101), at 800-fold the tested concentration and stored at -70 degrees C prior to their use. All drugs and investigational agents were tested over a range starting from a high concentration at or near the clinical Cmax and decreasing in half-log increments. If the clinical Cmax for an agent had not been determined, the highest concentration tested was 10 microM, except for SN-38, which was tested at a high concentration of 1 microM.
Cell Culture. All cells were maintained in an incubator at 37 degrees C and 5% CO2 with 95% humidity. The PDC lines were cultured according to standard operating procedures established by the NCI PDMR (https://pdmr.cancer.gov). Table 3 of the manuscript, lists the cell lines along with the number of the three cell types plated to form the mct-spheroids and media for tumor cell growth. After thawing, all PDC lines, except 997537-175-T-J1-PDC and 415267-285-R-J2-PDC, were cultured in Matrigel-coated flasks prepared with a working solution of 1X Ham's F-12 nutrient mix, without supplementation (Thermo Fisher Scientific, cat. 11765054), 100 U/mL penicillin-streptomycin (Thermo Fisher Scientific, cat. 15140122), and 2.5% Matrigel (Corning Inc., Corning, NY, cat. 354248) for the first three passages. The two PDC lines 997537-175-T-J1-PDC and 415267-285-R-J2-PDC were cultured on uncoated flasks. The 857933-349-R-J2-PDC line was cultured in 6C/Colon 1B media containing advanced DMEM/F-12 (Thermo Fisher Scientific, cat. 12634028), 10 mM HEPES (Thermo Fisher Scientific, cat. 15630080), 1X GlutaMAX supplement (Thermo Fisher Scientific, cat. 35050061), 0.1 mg/mL primocin (InvivoGen, San Diego, CA, cat. ant-pm-2), 10% defined fetal bovine serum, heat inactivated (HyClone Laboratories Inc., Logan, UT, cat. SH30070.03HI), 50% L-WRN conditioned media (ATCC, cat. CRL-3276), 1.25 mM N-Acetyl-L-cysteine (Sigma-Aldrich, cat. A9165), 10 mM nicotinamide (Sigma-Aldrich, cat. N0636), 1X B-27 supplement (Thermo Fisher Scientific, cat. 17504044), 1X N-2 supplement (Thermo Fisher Scientific, cat. […]

[1] = second compound 0.0316 µM, first compound 0.00316 µM
[2] = second compound 0.0316 µM, first compound 0.01 µM
[3] = second compound 0.0316 µM, first compound 0.0316 µM
[4] = second compound 0.0316 µM, first compound 0.1 µM
[5] = second compound 0.1 µM, first compound 0.00316 µM
[6] = second compound 0.1 µM, first compound 0.01 µM
[7] = second compound 0.1 µM, first compound 0.0316 µM
[8] = second compound 0.1 µM, first compound 0.1 µM
[9] = second compound 0.316 µM, first compound 0.00316 µM
[10] = second compound 0.316 µM, first compound 0.01 µM
[11] = second compound 0.316 µM, first compound 0.0316 µM
[12] = second compound 0.316 µM, first compound 0.1 µM
[13] = second compound 1 µM, first compound 0.00316 µM
[14] = second compound 1 µM, first compound 0.01 µM
[15] = second compound 1 µM, first compound 0.0316 µM
[16] = second compound 1 µM, first compound 0.1 µM
[17] = second compound 3.16 µM, first compound 0.00316 µM
[18] = second compound 3.16 µM, first compound 0.01 µM
[19] = second compound 3.16 µM, first compound 0.0316 µM
[20] = second compound 3.16 µM, first compound 0.1 µM
[21] = second compound 10 µM, first compound 0.00316 µM
[22] = second compound 10 µM, first compound 0.01 µM
[23] = second compound 10 µM, first compound 0.0316 µM
[24] = second compound 10 µM, first compound 0.1 µM
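Note: spheroids exposed to compounds for 7 days.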

CCc1c2c(nc3ccc(O)cc13)-c1cc3c(c(=O)n1C2)COC(=O)[C@]3(O)CC + COC1C(OC(N)=O)C(O)C(Oc2ccc3c(O)c(NC(=O)c4ccc(O)c(CC=C(C)C)c4)c(=O)oc3c2C)OC1(C)C
inactive: viability, T/C [1] 66.3% | viability, T/C [2] 58.3% | viability, T/C [3] 44.8% | viability, T/C [4] 47.9% | viability, T/C (second compound 0.0316 µM, first compound 0.316 µM) 29% | viability, T/C [5] 73.1% | viability, T/C [6] 58.2% | viability, T/C [7] 47.3% | viability, T/C [8] 49.9% | viability, T/C (second compound 0.1 µM, first compound 0.316 µM) 28.7% | viability, T/C [9] 80.1% | viability, T/C [10] 54.3% | viability, T/C [11] 48.6% | viability, T/C [12] 45.7% | viability, T/C (second compound 0.316 µM, first compound 0.316 µM) 30.9% | viability, T/C (second compound 0.316 µM, first compound 1 µM) 5% | viability, T/C [13] 75.9% | viability, T/C [14] 60.4% | viability, T/C [15] 44.1% | viability, T/C [16] 49.9% | viability, T/C (second compound 1 µM, first compound 0.316 µM) 27.6% | viability, T/C [17] 76.4% | viability, T/C [18] 59% | viability, T/C [19] 45.1% | viability, T/C [20] 44.3% | viability, T/C (second compound 3.16 µM, first compound 0.316 µM) 30% | viability, T/C [21] 68.7% | viability, T/C [22] 52.3% | viability, T/C [23] 48.9% | viability, T/C [24] 43.5% | viability, T/C (second compound 10 µM, first compound 0.316 µM) 27.5%
38.3 nM: IC50 (second compound 0.316 µM)
41.1 nM: IC50 (second compound 1 µM)
35.3 nM: IC50 (second compound 3.16 µM)
active: viability, T/C (second compound 0.0316 µM, first compound 1 µM) 5.01% | viability, T/C (second compound 0.1 µM, first compound 1 µM) 4.25% | viability, T/C (second compound 1 µM, first compound 1 µM) 4.79% | viability, T/C (second compound 3.16 µM, first compound 1 µM) 4.76% | viability, T/C (second compound 10 µM, first compound 1 µM) 4.27%
35.8 nM: IC50 (second compound 10 µM)
42.2 nM: IC50 (second compound 0.0316 µM)
48.9 nM: IC50 (second compound 0.1 µM)

CC[C@@]1(O)C(=O)OCc2c1cc1n(c2=O)Cc2cc3c(CN(C)C)c(O)ccc3nc2-1 + Cc1cccc(N(C)C(=O)C2C(O)CCN2c2nc(C)cc(C(F)(F)F)c2C#N)c1
> 100 nM: IC50 (second compound 0.0316 µM) | IC50 (second compound 0.1 µM) | IC50 (second compound 0.316 µM) | IC50 (second compound 1 µM) | IC50 (second compound 3.16 µM) | IC50 (second compound 10 µM)
inactive: viability, T/C (second compound 0.0316 µM, first compound 0.000316 µM) 112% | viability, T/C (second compound 0.0316 µM, first compound 0.001 µM) 103% | viability, T/C [1] 98% | viability, T/C [2] 93.5% | viability, T/C [3] 72% | viability, T/C [4] 65.5% | viability, T/C (second compound 0.1 µM, first compound 0.000316 µM) 111% | viability, T/C (second compound 0.1 µM, first compound 0.001 µM) 112% | viability, T/C [5] 93.4% | viability, T/C [6] 93% | viability, T/C [7] 73.2% | viability, T/C [8] 68.1% | viability, T/C (second compound 0.316 µM, first compound 0.000316 µM) 117% | viability, T/C (second compound 0.316 µM, first compound 0.001 µM) 104% | viability, T/C [9] 103% | viability, T/C [10] 100% | viability, T/C [11] 74.9% | viability, T/C [12] 62.4% | viability, T/C (second compound 1 µM, first compound 0.000316 µM) 100% | viability, T/C (second compound 1 µM, first compound 0.001 µM) 98% | viability, T/C [13] 99.5% | viability, T/C [14] 94.2% | viability, T/C [15] 81.8% | viability, T/C [16] 61.7% | viability, T/C (second compound 3.16 µM, first compound 0.000316 µM) 108% | viability, T/C (second compound 3.16 µM, first compound 0.001 µM) 99.3% | viability, T/C [17] 98.8% | viability, T/C [18] 101% | viability, T/C [19] 71.6% | viability, T/C [20] 55.3% | viability, T/C (second compound 10 µM, first compound 0.000316 µM) 99.9% | viability, T/C (second compound 10 µM, first compound 0.001 µM) 95.3% | viability, T/C [21] 90.5% | viability, T/C [22] 87.6% | viability, T/C [23] 83% | viability, T/C [24] 63.6%
